Laboratory results taken from patent US8969516B2, “Method of hydrolysis of peptide bond” (priority 2006, dated 2015).

Test: MALDI-TOF screening of Ni^2+ dependent hydrolysis in a combinatorial peptide library
Assay type: physicochemical
Conditions: Ni^2+ 2 mM, pH 8.2, 10 mM Tris, score=24/tm
Method in brief: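 MALDI-TOF spectra taken at 2, 4, 6 and 8 h tracked the appearance of Ser/Thr-X-His-Z-Lys-Phe-Leu-NH2 cleavage products and the fall in substrate signals. Reactions: 1 mM peptide mixture, 2 mM Ni^2+, 10 mM Tris pH 8.2, at 37 or 45 °C; X/Z substitutions ranked by summed scores.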

[1] = CH3CO-Gly-Ala-Thr-X-His-Z-Lys-Phe-Leu-NH2 library, 37° C.
[2] = CH3CO-Gly-Ala-Thr-X-His-Z-Lys-Phe-Leu-NH2 library, 45° C.
[3] = CH3CO-Gly-Ala-Ser-X-His-Z-Lys-Phe-Leu-NH2 library, 37° C.
[4] = CH3CO-Gly-Ala-Ser-X-His-Z-Lys-Phe-Leu-NH2 library, 45° C.

| Substance | hydrolysis score from MALDI-TOF screening [1] | hydrolysis score from MALDI-TOF screening [2] | hydrolysis score from MALDI-TOF screening [3] | hydrolysis score from MALDI-TOF screening [4] |
| --- | --- | --- | --- | --- |
| Ac-GATQHAKFL-NH2 [TQHA] | 0 (a score of 0 if no trace of the product of hydrolysis was seen after 8 hours of incubation) | 0 (a score of 0 if no trace of the product of hydrolysis was seen after 8 hours of incubation) | – | – |
| Ac-GASKHKKFL-NH2 [SKHK] | – | – | 6 (a score of 6 for detection at 4 hours) | 12 (a score of 12, if it was seen to be partially hydrolysed at 2 hours) |
| Ac-GATYHGKFL-NH2 [TYHG] | 0 (a score of 0 if no trace of the product of hydrolysis was seen after 8 hours of incubation) | 0 (a score of 0 if no trace of the product of hydrolysis was seen after 8 hours of incubation) | – | – |
| Ac-GATVHGKFL-NH2 [TVHG] | 0 (a score of 0 if no trace of the product of hydrolysis was seen after 8 hours of incubation) | 0 (a score of 0 if no trace of the product of hydrolysis was seen after 8 hours of incubation) | – | – |
| Ac-GASYHYKFL-NH2 [SYHY] | – | – | 3 (a score of 3 for detection at 8 hours) | 4 (a score of 4 for detection at 6 hours) |
| Ac-GASNHQKFL-NH2 [SNHQ] | – | – | 0 (a score of 0 if no trace of the product of hydrolysis was seen after 8 hours of incubation) | 0 (a score of 0 if no trace of the product of hydrolysis was seen after 8 hours of incubation) |
| Ac-GATLHIKFL-NH2 [TLHI] | 0 (a score of 0 if no trace of the product of hydrolysis was seen after 8 hours of incubation) | 0 (a score of 0 if no trace of the product of hydrolysis was seen after 8 hours of incubation) | – | – |
| Ac-GATSHPKFL-NH2 [TSHP] | 0 (a score of 0 if no trace of the product of hydrolysis was seen after 8 hours of incubation) | 0 (a score of 0 if no trace of the product of hydrolysis was seen after 8 hours of incubation) | – | – |
| Ac-GATKHAKFL-NH2 [TKHA] | 0 (a score of 0 if no trace of the product of hydrolysis was seen after 8 hours of incubation) | 3 (a score of 3 for detection at 8 hours) | – | – |
| Ac-GASAHQKFL-NH2 [SAHQ] | – | – | 0 (a score of 0 if no trace of the product of hydrolysis was seen after 8 hours of incubation) | 0 (a score of 0 if no trace of the product of hydrolysis was seen after 8 hours of incubation) |
| Ac-GASVHMKFL-NH2 [SVHM] | – | – | 0 (a score of 0 if no trace of the product of hydrolysis was seen after 8 hours of incubation) | 0 (a score of 0 if no trace of the product of hydrolysis was seen after 8 hours of incubation) |
| Ac-GASVHQKFL-NH2 [SVHQ] | – | – | 0 (a score of 0 if no trace of the product of hydrolysis was seen after 8 hours of incubation) | 0 (a score of 0 if no trace of the product of hydrolysis was seen after 8 hours of incubation) |
| Ac-GASVHSKFL-NH2 [SVHS] | – | – | 0 (a score of 0 if no trace of the product of hydrolysis was seen after 8 hours of incubation) | 0 (a score of 0 if no trace of the product of hydrolysis was seen after 8 hours of incubation) |
| Ac-GASFHIKFL-NH2 [SFHI] | – | – | 4 (a score of 4 for detection at 6 hours) | 6 (a score of 6 for detection at 4 hours) |
| Ac-GASMHKKFL-NH2 [SMHK] | – | – | 3 (a score of 3 for detection at 8 hours) | 6 (a score of 6 for detection at 4 hours) |
| Ac-GASTHEKFL-NH2 [STHE] | – | – | 0 (a score of 0 if no trace of the product of hydrolysis was seen after 8 hours of incubation) | 0 (a score of 0 if no trace of the product of hydrolysis was seen after 8 hours of incubation) |
| Ac-GASSHAKFL-NH2 [SSHA] | – | – | 0 (a score of 0 if no trace of the product of hydrolysis was seen after 8 hours of incubation) | 3 (a score of 3 for detection at 8 hours) |
| Ac-GATAHMKFL-NH2 [TAHM] | 0 (a score of 0 if no trace of the product of hydrolysis was seen after 8 hours of incubation) | 0 (a score of 0 if no trace of the product of hydrolysis was seen after 8 hours of incubation) | – | – |
| Ac-GATVHLKFL-NH2 [TVHL] | 0 (a score of 0 if no trace of the product of hydrolysis was seen after 8 hours of incubation) | 0 (a score of 0 if no trace of the product of hydrolysis was seen after 8 hours of incubation) | – | – |
| Ac-GATPHIKFL-NH2 [TPHI] | – | 0 (a score of 0 if no trace of the product of hydrolysis was seen after 8 hours of incubation) | – | – |
| Ac-GATKHPKFL-NH2 [TKHP] | 0 (a score of 0 if no trace of the product of hydrolysis was seen after 8 hours of incubation) | 0 (a score of 0 if no trace of the product of hydrolysis was seen after 8 hours of incubation) | – | – |
| Ac-GASFHDKFL-NH2 [SFHD] | – | – | 0 (a score of 0 if no trace of the product of hydrolysis was seen after 8 hours of incubation) | 0 (a score of 0 if no trace of the product of hydrolysis was seen after 8 hours of incubation) |
| Ac-GASAHRKFL-NH2 [SAHR] | – | – | 3 (a score of 3 for detection at 8 hours) | 6 (a score of 6 for detection at 4 hours) |
| Ac-GASMHHKFL-NH2 [SMHH] | – | – | 0 (a score of 0 if no trace of the product of hydrolysis was seen after 8 hours of incubation) | 3 (a score of 3 for detection at 8 hours) |
| Ac-GATGHAKFL-NH2 [TGHA] | 0 (a score of 0 if no trace of the product of hydrolysis was seen after 8 hours of incubation) | 0 (a score of 0 if no trace of the product of hydrolysis was seen after 8 hours of incubation) | – | – |
| Ac-GASSHEKFL-NH2 [SSHE] | – | – | 0 (a score of 0 if no trace of the product of hydrolysis was seen after 8 hours of incubation) | 3 (a score of 3 for detection at 8 hours) |
| Ac-GATHHHKFL-NH2 [THHH] | 3 (a score of 3 for detection at 8 hours) | 4 (a score of 4 for detection at 6 hours) | – | – |
